pEC50, pIC50: −log10 of the molar value.

For series [1], the target named is Cytoplasmic tyrosine-protein kinase BMX (Homo sapiens) (UniProt P51813). Put plainly: Binding affinity to wild-type human BMX expressed in bacterial system assessed as control score at 1 uM by KINOMEScan assay.
In series [2] the target is T1, Tyrosine-protein kinase Blk (Homo sapiens, UniProt P51451). Put plainly: Binding affinity to wild-type human BLK expressed in bacterial system assessed as control score at 1 uM by KINOMEScan assay.
Target sequence in this assay (P51451 2-505 limits assumed): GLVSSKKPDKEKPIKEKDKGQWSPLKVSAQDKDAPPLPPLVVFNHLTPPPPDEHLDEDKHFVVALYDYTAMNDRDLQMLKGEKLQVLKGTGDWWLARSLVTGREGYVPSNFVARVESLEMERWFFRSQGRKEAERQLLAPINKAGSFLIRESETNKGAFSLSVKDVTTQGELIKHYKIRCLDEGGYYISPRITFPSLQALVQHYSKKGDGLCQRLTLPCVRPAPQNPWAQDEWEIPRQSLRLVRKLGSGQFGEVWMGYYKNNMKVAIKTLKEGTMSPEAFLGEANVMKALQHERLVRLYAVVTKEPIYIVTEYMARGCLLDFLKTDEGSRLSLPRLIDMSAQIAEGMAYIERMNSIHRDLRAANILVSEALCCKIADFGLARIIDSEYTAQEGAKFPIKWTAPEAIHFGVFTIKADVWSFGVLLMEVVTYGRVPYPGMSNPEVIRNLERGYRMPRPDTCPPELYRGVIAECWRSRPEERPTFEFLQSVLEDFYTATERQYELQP
Series [3] deals with Receptor tyrosine-protein kinase erbB-4 (Homo sapiens, UniProt Q15303). Put plainly: Binding affinity to wild-type human ERBB4 expressed in bacterial system assessed as control score at 1 uM by KINOMEScan assay.
The target in series [4] is T1, Tyrosine-protein kinase Blk. Put plainly: Inhibition of full-length recombinant human His-tagged BLK expressed in baculovirus by Z'-LYTE assay.
Target sequence in this assay (P51451 whole entry): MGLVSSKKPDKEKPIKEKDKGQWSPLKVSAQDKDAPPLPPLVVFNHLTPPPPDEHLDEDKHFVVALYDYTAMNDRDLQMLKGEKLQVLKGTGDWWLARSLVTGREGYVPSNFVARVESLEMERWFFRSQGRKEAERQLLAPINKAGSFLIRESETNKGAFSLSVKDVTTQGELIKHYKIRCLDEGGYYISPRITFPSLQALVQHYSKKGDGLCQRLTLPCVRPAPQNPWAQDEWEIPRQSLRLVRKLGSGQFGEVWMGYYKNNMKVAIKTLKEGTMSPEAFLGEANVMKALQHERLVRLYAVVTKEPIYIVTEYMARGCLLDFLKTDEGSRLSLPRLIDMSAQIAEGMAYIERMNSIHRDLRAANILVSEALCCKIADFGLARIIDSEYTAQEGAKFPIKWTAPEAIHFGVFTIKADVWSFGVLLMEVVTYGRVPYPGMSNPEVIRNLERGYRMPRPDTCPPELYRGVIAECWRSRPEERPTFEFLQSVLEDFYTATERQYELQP
For series [5], the target named is Cytoplasmic tyrosine-protein kinase BMX (Homo sapiens, UniProt P51813). Put plainly: Inhibition of full-length recombinant human His-tagged BMX expressed in baculovirus by Z'-LYTE assay.
Chain of Cytoplasmic tyrosine-protein kinase BMX (P51813 whole entry): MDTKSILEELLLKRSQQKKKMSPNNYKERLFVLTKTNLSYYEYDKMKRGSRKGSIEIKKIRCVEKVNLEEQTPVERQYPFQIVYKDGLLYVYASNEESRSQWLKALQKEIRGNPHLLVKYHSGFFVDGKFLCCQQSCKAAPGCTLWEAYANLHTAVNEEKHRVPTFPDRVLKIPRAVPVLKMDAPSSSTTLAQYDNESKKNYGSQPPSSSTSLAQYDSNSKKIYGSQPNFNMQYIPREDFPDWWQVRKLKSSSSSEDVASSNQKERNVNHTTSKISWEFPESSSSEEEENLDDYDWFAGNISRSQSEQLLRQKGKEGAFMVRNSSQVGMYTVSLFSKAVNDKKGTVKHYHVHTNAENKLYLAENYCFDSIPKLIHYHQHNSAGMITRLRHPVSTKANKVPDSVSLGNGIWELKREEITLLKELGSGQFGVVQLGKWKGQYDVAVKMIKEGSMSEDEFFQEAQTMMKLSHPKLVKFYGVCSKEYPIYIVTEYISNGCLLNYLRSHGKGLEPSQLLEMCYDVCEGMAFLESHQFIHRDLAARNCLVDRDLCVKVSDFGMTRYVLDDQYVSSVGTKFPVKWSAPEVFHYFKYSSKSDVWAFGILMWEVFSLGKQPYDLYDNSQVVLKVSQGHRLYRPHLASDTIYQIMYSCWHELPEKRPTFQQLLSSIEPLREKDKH
Series [6] concerns the target Dual specificity mitogen-activated protein kinase kinase 1 (Homo sapiens, UniProt Q02750). Put plainly: Inhibition of full-length recombinant human His-tagged MEK1 expressed in baculovirus by Z'-LYTE assay.
In series [7] the target is T2, Epidermal growth factor receptor (Homo sapiens, UniProt P00533). Put plainly: Inhibition of wild-type EGFR in human NCI-H2122 cells assessed as growth inhibition after 72 hrs by CellTiter-Glo assay. The format is cell-based. In general terms: ATP-based viability assays read luminescence as a measure of living cells.
T2 sequence (P00533 whole entry): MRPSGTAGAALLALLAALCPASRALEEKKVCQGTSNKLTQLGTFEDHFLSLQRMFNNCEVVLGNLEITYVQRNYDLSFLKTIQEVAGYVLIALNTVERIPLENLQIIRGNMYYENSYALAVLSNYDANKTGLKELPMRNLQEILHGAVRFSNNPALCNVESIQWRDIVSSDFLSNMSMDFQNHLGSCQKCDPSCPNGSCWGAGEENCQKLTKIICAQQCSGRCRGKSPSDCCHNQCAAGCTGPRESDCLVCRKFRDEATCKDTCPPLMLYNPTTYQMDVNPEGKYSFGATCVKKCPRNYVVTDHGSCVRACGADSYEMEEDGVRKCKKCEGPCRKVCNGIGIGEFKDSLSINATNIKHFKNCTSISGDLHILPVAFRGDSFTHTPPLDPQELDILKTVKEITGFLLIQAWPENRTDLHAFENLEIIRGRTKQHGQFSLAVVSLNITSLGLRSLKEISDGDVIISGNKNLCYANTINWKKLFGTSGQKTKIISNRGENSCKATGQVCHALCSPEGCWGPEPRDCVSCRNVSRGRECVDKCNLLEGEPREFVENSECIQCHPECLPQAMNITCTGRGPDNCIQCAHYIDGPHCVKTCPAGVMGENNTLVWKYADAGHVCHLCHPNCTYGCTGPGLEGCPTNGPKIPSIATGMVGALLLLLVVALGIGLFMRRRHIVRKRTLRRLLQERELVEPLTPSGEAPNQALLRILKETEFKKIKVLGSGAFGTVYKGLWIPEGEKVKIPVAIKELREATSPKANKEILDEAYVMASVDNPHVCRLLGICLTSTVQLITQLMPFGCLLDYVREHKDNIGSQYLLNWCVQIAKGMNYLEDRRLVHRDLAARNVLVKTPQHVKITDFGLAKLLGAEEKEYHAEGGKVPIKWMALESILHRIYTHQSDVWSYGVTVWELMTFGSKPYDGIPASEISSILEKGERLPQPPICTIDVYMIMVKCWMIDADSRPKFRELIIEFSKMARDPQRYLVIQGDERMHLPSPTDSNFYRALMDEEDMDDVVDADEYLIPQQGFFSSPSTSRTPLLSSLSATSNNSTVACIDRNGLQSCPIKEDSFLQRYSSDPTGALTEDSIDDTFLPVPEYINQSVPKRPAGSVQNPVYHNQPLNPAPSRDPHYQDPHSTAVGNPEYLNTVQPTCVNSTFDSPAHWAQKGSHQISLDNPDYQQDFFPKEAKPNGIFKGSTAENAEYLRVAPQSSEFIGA
Series [8] addresses Epidermal growth factor receptor (Homo sapiens, UniProt P00533, L858R). The series can be described thus: Inhibition of EGFR L858R mutant expressed in human H3255 cells assessed as reduction in ERK phosphorylation at Thr202/Tyr204 measured after 4 hrs by Western blot analysis. It counts as cell-based.
Series [9] concerns the target T2, Epidermal growth factor receptor. The series can be described thus: Inhibition of wild-type EGFR in human A549 cells assessed as reduction in 4EBP1 phosphorylation at Thr37/46 site at 0.01 to 3 uM by Western blot analysis. It counts as cell-based. The following applies: a549, 3 µM. In general terms: In western blotting, separated proteins are transferred to a membrane and probed.

Series [10] shares this target. The series can be described thus: Inhibition of wild-type EGFR in human A549 cells assessed as reduction in P70S6K phosphorylation at Thr389 site at 0.01 to 3 uM by Western blot analysis. As to conditions: a549, 3 µM; call rule not given here. It counts as cell-based.
The target is the same in series [11]. The series can be described thus: Inhibition of wild-type EGFR in human A549 cells assessed as reduction in ERK phosphorylation at Thr202/Tyr204 site at 0.01 to 3 uM by Western blot analysis. The format is cell-based. The following applies: a549, 3 µM.
Series [12] has the same target. Put plainly: Inhibition of wild-type EGFR in human NCI-H2122 cells assessed as reduction in STAT3 phosphorylation at Y705 site at 0.01 to 3 uM by Western blot analysis. It counts as cell-based.
Series [13] shares this target. The series can be described thus: Inhibition of wild-type EGFR in human NCI-H2122 cells assessed as reduction in Akt phosphorylation at 473 site at 0.01 to 3 uM by Western blot analysis. It counts as cell-based.
Series [14] has the same target. Put plainly: Inhibition of wild-type EGFR in human NCI-H2122 cells assessed as reduction in eIF4E phosphorylation at Ser209 site at 0.01 to 3 uM by Western blot analysis. The format is cell-based.
For series [15] the target is unchanged. The series can be described thus: Inhibition of wild-type EGFR in human NCI-H2122 cells assessed as reduction in P70S6K phosphorylation at Thr389 site at 0.01 to 3 uM by Western blot analysis. The format is cell-based.
In a further series the test system is Rattus norvegicus. The series can be described thus: AUC (0 to t) in Sprague-Dawley rat plasma at 10 mg/kg, po after 24 hrs. The format is ADME, organism-based. The arrangement: dose 10 mg/kg, time < 24 hr, route oral. As to conditions: in vivo.
Series [16] can be described thus: Oral bioavailability in Sprague-Dawley rat at 10 mg/kg after 24 hrs. It counts as ADME, organism-based. The following applies: in vivo.

Chain of Epidermal growth factor receptor (Homo sapiens, UniProt P00533, L858R) (P00533 25-1210 L858R limits assumed): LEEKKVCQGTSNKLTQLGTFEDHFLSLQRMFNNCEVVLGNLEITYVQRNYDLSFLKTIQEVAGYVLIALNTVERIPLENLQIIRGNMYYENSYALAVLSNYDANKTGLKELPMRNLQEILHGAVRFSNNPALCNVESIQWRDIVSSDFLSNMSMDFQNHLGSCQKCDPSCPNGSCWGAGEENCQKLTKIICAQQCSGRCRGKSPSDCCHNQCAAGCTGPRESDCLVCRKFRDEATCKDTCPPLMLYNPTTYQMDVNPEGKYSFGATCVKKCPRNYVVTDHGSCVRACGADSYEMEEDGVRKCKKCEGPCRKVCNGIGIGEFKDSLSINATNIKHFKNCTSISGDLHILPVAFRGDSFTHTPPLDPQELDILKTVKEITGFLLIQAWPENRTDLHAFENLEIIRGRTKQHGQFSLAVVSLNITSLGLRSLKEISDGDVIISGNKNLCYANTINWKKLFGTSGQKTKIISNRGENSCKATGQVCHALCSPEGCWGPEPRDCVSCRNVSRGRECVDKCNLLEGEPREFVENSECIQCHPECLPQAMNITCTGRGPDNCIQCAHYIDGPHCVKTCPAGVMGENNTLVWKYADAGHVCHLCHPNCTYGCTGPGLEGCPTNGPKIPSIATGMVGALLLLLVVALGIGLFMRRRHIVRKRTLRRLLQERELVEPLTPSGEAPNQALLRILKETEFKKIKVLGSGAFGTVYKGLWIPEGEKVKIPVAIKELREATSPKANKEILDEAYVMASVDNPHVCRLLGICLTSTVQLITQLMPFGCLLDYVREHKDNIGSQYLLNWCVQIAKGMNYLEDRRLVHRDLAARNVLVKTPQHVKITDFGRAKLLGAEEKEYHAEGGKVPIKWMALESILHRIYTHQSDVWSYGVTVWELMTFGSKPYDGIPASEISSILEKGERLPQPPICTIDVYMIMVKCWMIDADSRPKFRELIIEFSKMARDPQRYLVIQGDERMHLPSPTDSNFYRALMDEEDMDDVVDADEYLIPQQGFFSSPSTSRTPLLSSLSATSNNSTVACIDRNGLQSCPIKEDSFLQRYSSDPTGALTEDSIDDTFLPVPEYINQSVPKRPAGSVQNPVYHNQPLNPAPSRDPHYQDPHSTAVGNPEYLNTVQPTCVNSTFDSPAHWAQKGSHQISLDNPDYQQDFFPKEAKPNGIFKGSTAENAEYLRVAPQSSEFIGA
Chain of Dual specificity mitogen-activated protein kinase kinase 1 (Q02750 whole entry): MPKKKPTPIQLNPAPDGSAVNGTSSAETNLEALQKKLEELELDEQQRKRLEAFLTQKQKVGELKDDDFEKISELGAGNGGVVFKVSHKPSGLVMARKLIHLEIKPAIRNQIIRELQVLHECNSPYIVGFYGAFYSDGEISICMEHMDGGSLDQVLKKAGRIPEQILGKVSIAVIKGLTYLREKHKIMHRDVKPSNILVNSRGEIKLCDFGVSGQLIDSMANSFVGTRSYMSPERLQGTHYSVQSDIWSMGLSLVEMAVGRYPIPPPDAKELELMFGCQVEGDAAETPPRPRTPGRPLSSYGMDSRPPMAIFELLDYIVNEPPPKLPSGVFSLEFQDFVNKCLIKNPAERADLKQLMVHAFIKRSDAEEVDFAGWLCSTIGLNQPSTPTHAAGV
Chain of Cytoplasmic tyrosine-protein kinase BMX (Homo sapiens) (P51813 whole entry): as the sequence (P51813 whole entry) above

For orientation: pIC50 means −log10 of the IC50, conventionally taken in molar units. As a reminder, the GI50 is the concentration giving 50% growth inhibition. The term pEC50 denotes the negative decadic logarithm of the EC50, by convention in mol/L. A word on the bioavailability: it is the share of a dose that reaches the circulation, judged against a reference dose that is usually intravenous. Low readings indicate little systemic uptake, high ones much systemic uptake. As for `C=CC(=O)N1CCC[C@@H](n2nc(-c3ccc(OCc4ccccn4)c(Cl)c3)c3c(N)ncnc32)C1`, the Activity in series [1] was determined as 0.9%; in series [2], 0.7%; in series [3], 0%. Further, the pIC50 in [4] was 8.09; in series [5], 6.95; in series [6] it was 6.79. Besides, the GI50 in series [7] is above 10000 nM. In addition, the pEC50 in series [8] was above 8.00. The “inhibition (INH)” value in series [9], in series [10], in series [11], in series [12], in series [13] and in series [14] was “Not Active” in each case. In [15], the “inhibition (INH)” value is “Not Active”. The same compound gave an AUCt in the series with Rattus norvegicus of 130 to 415 ng/mL/h. Further, in series [16], the bioavailability amounted to 10.3%.

The values are drawn from ChEMBL document CHEMBL4049404, “Discovery of (R)-1-(3-(4-Amino-3-(3-chloro-4-(pyridin-2-ylmethoxy)phenyl)-1H-pyrazolo[3,4-d]pyrimidin-1-yl)piperidin-1-yl)prop-2-en-1-one (CHMFL-EGFR-202) as a Novel Irreversible EGFR Mutant Kinase Inhibitor with a Distinct Binding Mode” (J Med Chem, 2017).
